Several values for one entry are separate records, joined by “and”; a condition that tells them apart may be missing. Identical values can stand only once. Each block holds one molecule with its values, some of them ahead of it.
Columns and labels:
mushroom tyrosinase [1] = assay: Mushroom tyrosinase inhibition assay; assay type: biochemical; conditions: for IC50: L-tyrosine as substrate, mean of 3 experiments, read-out: IC50 against mushroom tyrosinase; for fold lower tyrosinase inhibitory activity than 2b: ratio of IC50 values vs 2b
Protocol: The absorbances of dopachrome produced in each well during incubation was measured at 450 nm using a microplate reader (VersaMax™, Molecular Devices, Sunnyvale, CA, USA). […] All experiments were independently conducted 3 times. To calculate the % inhibition of tyrosinase activity, the following formula was used: % inhibition = […], where A means the optical density of the test samples and B means the optical density of the non-treated control. To calculate the concentration necessary for 50% inhibition of enzyme activity (IC50), the % tyrosinase inhibition of each compound was obtained at 3 or more different concentrations. IC50 values were calculated by constructing a linear regression curve showing the concentration of the (Z)-BTTZ compounds on the x-axis and percentage inhibition on the y-axis. To obtain a negative control dimethyl sulfoxide (DMSO) was added instead of the (Z)-BTTZ compounds.

mushroom tyrosinase [2] = assay: Kinetic study of mushroom tyrosinase inhibition (Lineweaver–Burk plots); assay type: biochemical; conditions: L-tyrosine 0.5–8.0 mM
Protocol: To investigate the modes of action of compounds 2b and 2f, a kinetic study was performed using mushroom tyrosinase and different concentrations of L-tyrosine as a substrate in the presence of 2b or 2f. As depicted in Figure 4, inhibitory mechanisms were determined using Lineweaver–Burk plot analysis. The Lineweaver–Burk plot patterns of 2b and 2f were similar. The plots obtained at different concentrations of 2b and 2f merged at single points on the y-axis. Regardless of the concentration, the Vmax values of 2b and 2f were independent of concentration, whereas their KM values increased concentration-dependently.
Compounds 2b or 2f (10 µL, final concentrations: 0, 0.05, 0.1, or 0.2 µM for 2b and 0, 2, 4, or 8 µM for 2f) and mushroom tyrosinase solution (20 µL, 150 units) were added to the wells of a 96-well plate containing aqueous solutions (170 µL) containing L-tyrosine at 0.5, 1.0, 2.0, 4.0, or 8.0 mM (final concentrations), distilled water, and potassium phosphate buffer (final concentration: 14.7 mM, pH 6.5), in the ratio 10:9:10. Initial rates of dopachrome formation in reaction mixtures were calculated by measuring increases in absorbances at 492 nm (ΔOD492/min) using a microplate reader (VersaMax^TM, Molecular Devices, Sunnyvale, CA, USA). […] Modes of tyrosinase inhibition were determined using points of convergence. […]

B16F10 melanoma cells [3] = assay: Cell viability, EZ-Cytox assay; assay type: cell-based, murine; conditions: concentrations ≤25 µM; 24 and 48 h for 2b and 2f, respectively
Protocol: Before examining the inhibitory effects of compounds 2b and 2f on tyrosinase and melanin biosynthesis, we investigated their cytotoxic effects using murine B16F10 melanoma cells. The cells were treated with different concentrations of 2b or 2f (0, 1, 2.5, 5, 10, or 25 µM) for 24 and 48 h (Figure 7), respectively, and the cell viabilities were assessed using the EZ-Cytox assay.
Cell viability assays of compounds 2b and 2f were performed using B16F10 melanoma cells and the EZ-Cytox assay (EZ-3000, DoGenBio, Seoul, Korea), as previously described. Briefly, cells were seeded at a density of 1 × 10^4 cells/well in a 96-well plate for 24 h, and then were exposed to different concentrations (0, 1, 2.5, 5, 10, or 25 µM) of 2b or 2f and incubated at 37 °C for 24 and 48 h, respectively. EZ-Cytox solution (10 µL) was then added to each well and cells were incubated at 37 °C for 2 h. Absorbances were measured at 450 nm using a microplate reader (VersaMax^TM, Molecular Devices, Sunnyvale, CA, USA). Each assay was performed in triplicate.
Figure 7 The cytotoxic effects of compounds 2b (a) and 2f (b) on B16F10 melanoma cells at concentrations of 1, 2.5, 5, 10, or 25 µM. Cell viabilities were determined using the EZ-Cytox assay and are expressed as percentages versus non-treated controls. Bars present standard errors.

B16F10 melanoma cells [4] = assay: Melanin content assay in α-MSH-stimulated cells; assay type: cell-based, murine; conditions: for reduction in melanin content: 48 h
Protocol: Melanin content assays were used to evaluate the inhibitory effects of compounds 2b and 2f on α-MSH-stimulated melanogenesis. […] The inhibitory activities on α-MSH-stimulated melanogenesis were determined by measuring melanin optical densities. The anti-melanogenesis activities of compounds 2b and 2f were assessed using a standard melanin content assay with minor modifications. Briefly, B16F10 cells were seeded at a density of 5 × 10^4/well in a 24-well plate and allowed to adhere to wells in a DMEM solution containing penicillin/streptomycin (100 IU/100 µg/mL) and 10% heat-inactivated FBS in a standard humidified 5% CO2 atmosphere at 37 °C. […] Cells were then rinsed twice with PBS and lysed in 200 µL of 1N NaOH containing 10% dimethyl sulfoxide (DMSO) for 1 h at 60 °C. Lysates were transferred to the wells of a 96-well plate, and melanin absorbances were measured at 405 nm using a microplate reader (VersaMax^TM, Molecular Devices, Sunnyvale, CA, USA). All experiments were conducted three times in triplicate. […] Bars represent standard errors.

[5] = tested on: cellular tyrosinase in B16F10 melanoma cells; assay: Cellular tyrosinase activity assay (L-DOPA oxidation) in α-MSH-stimulated cells; assay type: cell-based, murine; conditions: for reduction in cellular tyrosinase activity: 48 h
Protocol: The inhibitory activities of compounds 2b and 2f against cellular tyrosinase were assessed using α-MSH-stimulated melanoma cells. […] The inhibitory effects on tyrosinase activity were evaluated by measuring optical densities.
Tyrosinase activities were assessed by determining the L-DOPA oxidation rate, as described previously with minor modifications. […] Cells were then rinsed twice with PBS, exposed to 100 µL of lysis buffer (90 µL of 50 mM phosphate buffer pH 6.8; 5 µL of 2 mM PMSF; 5 µL of 20% Triton), and frozen at −80 °C for 30 min. After defrosting, lysates were centrifuged at 12,000 g for 30 min at 4 °C, and supernatants (80 µL) were mixed with 10 mM L-DOPA (20 µL) in a 96-well plate. Absorbances were measured at 490 nm at 37 °C every 10 min for 1 h using a microplate reader (VersaMax^TM, Molecular Devices, Sunnyvale, CA, USA). All experiments were carried out three times in triplicate.
Bars represent standard errors.

[6] = 25 µM compound, α-MSH 0.5 µM, 48 h (α-MSH alone 1.61-fold)

- IC50 (mushroom tyrosinase [1]): 26.3 ± 4.1 µM
Compound: O=C1NC(=S)/C(=C/c2ccc(O)c(Br)c2)S1 [Compound 2i, (Z)-5-(3-Bromo-4-hydroxybenzylidene)-4-thioxothiazolidin-2-one]

- IC50 (mushroom tyrosinase [1]): 30.8 ± 1.41 µM
Compound: COc1ccc(/C=C2\SC(=O)NC2=S)cc1 [Compound 2j, (Z)-5-(4-Methoxybenzylidene)-4-thioxothiazolidin-2-one]

- IC50 (mushroom tyrosinase [1]): 126.4 ± 0.46 µM
Compound: COc1ccc(/C=C2\SC(=O)NC2=S)c(OC)c1 [Compound 2k, (Z)-5-(2,4-Dimethoxybenzylidene)-4-thioxothiazolidin-2-one]

- IC50 (mushroom tyrosinase [1]): 23.3 ± 0.28 µM
Compound: COc1ccc(/C=C2\SC(=O)NC2=S)cc1OC [Compound 2l, (Z)-5-(3,4-Dimethoxybenzylidene)-4-thioxothiazolidin-2-one]

Second part, the molecule before the results:

Compound: O=C1NC(=S)/C(=C/c2ccc(O)cc2)S1 [Compound 2a, (Z)-5-(4-Hydroxybenzylidene)-4-thioxothiazolidin-2-one]
- IC50 (mushroom tyrosinase [1]): 28.1 ± 1.16 µM
- fold lower tyrosinase inhibitory activity than 2b (mushroom tyrosinase [1]): 60 fold

Compound: O=C1NC(=S)/C(=C/c2ccc(O)cc2O)S1 [Compound 2b, (Z)-5-(2,4-Dihydroxybenzylidene)-4-thioxothiazolidin-2-one]
- fold higher inhibitory potency than kojic acid (mushroom tyrosinase) (mushroom tyrosinase [1]; ratio of IC50 values vs kojic acid): 141 fold and > 100 fold
- mode of mushroom tyrosinase inhibition (mushroom tyrosinase [2]): competitive
- cytotoxic effect on B16F10 cells (B16F10 melanoma cells [3]): Neither 2b nor 2f exhibited any significant cytotoxic effect
- reduction in melanin content (B16F10 melanoma cells [4]; 5 µM compound, α-MSH 0.5 µM): 26%
- melanin level versus non-treated controls (B16F10 melanoma cells [4]; 5 µM compound, α-MSH 0.5 µM, 48 h (α-MSH alone 1.61-fold)): 1.19 fold
- reduction in melanin content (B16F10 melanoma cells [4]; 10 µM compound, α-MSH 0.5 µM): 44%
- melanin level versus non-treated controls (B16F10 melanoma cells [4]; 10 µM compound, α-MSH 0.5 µM, 48 h (α-MSH alone 1.61-fold)): 0.91 fold
- reduction in melanin content (B16F10 melanoma cells [4]; 25 µM compound, α-MSH 0.5 µM): 47%
- melanin level versus non-treated controls (B16F10 melanoma cells [4]; [6]): 0.85 fold
- reduction in cellular tyrosinase activity ([5]; 5 µM compound, α-MSH 0.5 µM): 16%
- cellular tyrosinase activity versus non-treated cells ([5]; 5 µM compound, α-MSH 0.5 µM, 48 h (α-MSH alone 2.19-fold)): 1.85 fold
- reduction in cellular tyrosinase activity ([5]; 10 µM compound, α-MSH 0.5 µM): 32%
- cellular tyrosinase activity versus non-treated cells ([5]; 10 µM compound, α-MSH 0.5 µM, 48 h (α-MSH alone 2.19-fold)): 1.48 fold
- reduction in cellular tyrosinase activity ([5]; 25 µM compound, α-MSH 0.5 µM): 45%
- cellular tyrosinase activity versus non-treated cells ([5]; 25 µM compound, α-MSH 0.5 µM, 48 h (α-MSH alone 2.19-fold)): 1.20 fold

Compound: O=C1NC(=S)/C(=C/c2ccc(O)c(O)c2)S1 [Compound 2c, (Z)-5-(3,4-Dihydroxybenzylidene)-4-thioxothiazolidin-2-one]
- IC50 (mushroom tyrosinase [1]): 47.4 ± 2.18 µM

Compound: COc1cc(/C=C2\SC(=O)NC2=S)ccc1O [Compound 2d, (Z)-5-(4-Hydroxy-3-methoxybenzylidene)-4-thioxothiazolidin-2-one]
- IC50 (mushroom tyrosinase [1]): 70.8 ± 1 µM
- fold lower mushroom tyrosinase inhibitory activity than compound 2f (mushroom tyrosinase [1]; ratio of IC50 values vs 2f): 4.6 fold

Compound: CCOc1cc(/C=C2\SC(=O)NC2=S)ccc1O [Compound 2e, (Z)-5-(3-Ethoxy-4-hydroxybenzylidene)-4-thioxothiazolidin-2-one]
- IC50 (mushroom tyrosinase [1]): 92.81 ± 0.89 µM

Compound: COc1ccc(/C=C2\SC(=O)NC2=S)cc1O [Compound 2f, (Z)-5-(3-Hydroxy-4-methoxybenzylidene)-4-thioxothiazolidin-2-one]
- IC50 (mushroom tyrosinase [1]): 15.2 ± 1.68 µM
- mode of mushroom tyrosinase inhibition (mushroom tyrosinase [2]): competitive
- cytotoxic effect on B16F10 cells (B16F10 melanoma cells [3]): Neither 2b nor 2f exhibited any significant cytotoxic effect
- reduction in melanin content (B16F10 melanoma cells [4]; 5 µM compound, α-MSH 1.0 µM): 14%
- melanin level versus non-treated controls (B16F10 melanoma cells [4]; 5 µM compound, α-MSH 1.0 µM, 48 h (α-MSH alone 3.51-fold)): 3.03 fold
- reduction in melanin content (B16F10 melanoma cells [4]; 10 µM compound, α-MSH 1.0 µM): 46%
- melanin level versus non-treated controls (B16F10 melanoma cells [4]; 10 µM compound, α-MSH 1.0 µM, 48 h (α-MSH alone 3.51-fold)): 1.88 fold
- reduction in melanin content (B16F10 melanoma cells [4]; 25 µM compound, α-MSH 1.0 µM): 60%
- melanin level versus non-treated controls (B16F10 melanoma cells [4]; 25 µM compound, α-MSH 1.0 µM, 48 h (α-MSH alone 3.51-fold)): 1.42 fold
- reduction in cellular tyrosinase activity ([5]; 5 µM compound, α-MSH 1.0 µM): 23%
- cellular tyrosinase activity versus non-treated cells ([5]; 5 µM compound, α-MSH 1.0 µM, 48 h (α-MSH alone 2.84-fold)): 2.20 fold
- reduction in cellular tyrosinase activity ([5]; 10 µM compound, α-MSH 1.0 µM): 46%
- cellular tyrosinase activity versus non-treated cells ([5]; 10 µM compound, α-MSH 1.0 µM, 48 h (α-MSH alone 2.84-fold)): 1.54 fold
- reduction in cellular tyrosinase activity ([5]; 25 µM compound, α-MSH 1.0 µM): 59%
- cellular tyrosinase activity versus non-treated cells ([5]; 25 µM compound, α-MSH 1.0 µM, 48 h (α-MSH alone 2.84-fold)): 1.18 fold

Compound: COc1cc(/C=C2\SC(=O)NC2=S)cc(OC)c1O [Compound 2g, (Z)-5-(4-Hydroxy-3,5-dimethoxybenzylidene)-4-thioxothiazolidin-2-one]
- IC50 (mushroom tyrosinase [1]): 82.4 ± 1.26 µM

Compound: O=C1NC(=S)/C(=C/c2ccccc2O)S1 [Compound 2h, (Z)-5-(2-Hydroxybenzylidene)-4-thioxothiazolidin-2-one]
- IC50 (mushroom tyrosinase [1]): 147.6 ± 0.96 µM
- fold lower tyrosinase inhibitory activity than 2b (mushroom tyrosinase [1]): 314 fold

Compound: O=c1cc(CO)occ1O [Kojic acid, reference compound]
- reduction in melanin content (B16F10 melanoma cells [4]; 25 µM compound, α-MSH 0.5 µM): 14%
- melanin level versus non-treated controls (B16F10 melanoma cells [4]; [6]): 1.38 fold
- reduction in melanin content (B16F10 melanoma cells [4]; 25 µM compound, α-MSH 1.0 µM): 45%
- reduction in cellular tyrosinase activity ([5]; 25 µM compound, α-MSH 0.5 µM): 14%
- reduction in cellular tyrosinase activity ([5]; 25 µM compound, α-MSH 1.0 µM): 33%

Reference: paper PMC8400311, “Novel Anti-Melanogenic Compounds, (Z)-5-(Substituted Benzylidene)-4-thioxothiazolidin-2-one Derivatives: In Vitro and In Silico Insights” (Molecules, 2021)
